From publication PMC10746543, “Design principles for cyclin K molecular glue degraders” (Nature Chemical Biology, 2023)
Values joined by “and” are separate entries in the source; they are usually repeats but may differ in a detail not shown here. Equal entries are not always repeated. Where two headings read alike, the source gives them in different places.

Key:
CDK9–cyclin T = target: T1, CDK9–cyclin T (Homo sapiens, UniProt P50750); assay: Lanthascreen kinase binding assay, CDK9
T1 construct: purchased Thermo Fisher
Protocol: Lanthascreen experiments were performed using commercially available reagents (Thermo Fisher) and according to the manufacturer’s instructions.

HEK293T cells = assay: Drug sensitivity assay (CellTiter-Glo viability) with or without MLN4924 pretreatment; assay type: cell-based, human; details: for EC50: Homo sapiens, HEK-293T, HEK293T viability, 72 h, compound alone, read-out: Cellular assays EC50; for EC50 / Toxicity rescue: Supplementary Table 2; for Toxicity rescue: MLN4924-mediated cytotoxicity rescue, 10 µM used where n.d.
Summary of the method: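 Luminescent ATP read-out (CellTiter-Glo) after 3 days of drug exposure, normalised to DMSO controls. Cells were HEK293T–Cas9, pretreated with 100 nM MLN4924 or DMSO for 2 h before drug dispensing.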

cyclin K = assay: Label-free quantitative mass spectrometry in MDA-MB-231 cells, cyclin K; assay type: cell-based, human; details: for CCNK peptide count (DMSO-normalised): normalised to DMSO = 1, replicate values
Summary of the method: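 MDA-MB-231 cells treated 5 h with 1 µM cyclin K degrader or DMSO. Lysates digested with LysC and trypsin, then analysed by label-free diaPASEF LC-MS on a TimsTOF Pro2 with directDIA search and MS1 precursor quantification. Protein abundances scaled and analysed with limma.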

[1] = test system: cyclin K–eGFP degradation reporter; assay: Cyclin K reporter stability analysis (dual-color cyclin K–eGFP reporter); assay type: cell-based, human; details: for reporter assay signal (normalized): replicates; for Normalized GFP/mCheery: flow source data; for DC50: source data sheet correlations, read-out: DC50
Summary of the method: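 Cells (HEK293T–Cas9, reporter-expressing) at 1 × 10^6 ml^−1; 5 h compound or DMSO; flow cytometry; gMFI eGFP ÷ mCherry on round mCherry-positive events; normalized to 3 DMSO controls.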

[2] = individual replicates, sheet EDF7
[3] = label-free quantitative MS, replicate values

T1 sequence (P50750 whole entry): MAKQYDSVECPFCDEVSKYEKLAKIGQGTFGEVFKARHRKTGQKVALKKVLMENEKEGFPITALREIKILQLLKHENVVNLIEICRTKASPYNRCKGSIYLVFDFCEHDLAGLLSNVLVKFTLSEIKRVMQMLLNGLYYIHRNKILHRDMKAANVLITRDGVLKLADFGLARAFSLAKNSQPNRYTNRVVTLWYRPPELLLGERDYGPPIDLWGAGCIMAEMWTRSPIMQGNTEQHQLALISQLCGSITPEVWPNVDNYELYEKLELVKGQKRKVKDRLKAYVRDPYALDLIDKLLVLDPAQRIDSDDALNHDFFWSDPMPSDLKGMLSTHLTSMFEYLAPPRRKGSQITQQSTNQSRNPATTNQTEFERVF
T1 sequence (O60563 whole entry partner): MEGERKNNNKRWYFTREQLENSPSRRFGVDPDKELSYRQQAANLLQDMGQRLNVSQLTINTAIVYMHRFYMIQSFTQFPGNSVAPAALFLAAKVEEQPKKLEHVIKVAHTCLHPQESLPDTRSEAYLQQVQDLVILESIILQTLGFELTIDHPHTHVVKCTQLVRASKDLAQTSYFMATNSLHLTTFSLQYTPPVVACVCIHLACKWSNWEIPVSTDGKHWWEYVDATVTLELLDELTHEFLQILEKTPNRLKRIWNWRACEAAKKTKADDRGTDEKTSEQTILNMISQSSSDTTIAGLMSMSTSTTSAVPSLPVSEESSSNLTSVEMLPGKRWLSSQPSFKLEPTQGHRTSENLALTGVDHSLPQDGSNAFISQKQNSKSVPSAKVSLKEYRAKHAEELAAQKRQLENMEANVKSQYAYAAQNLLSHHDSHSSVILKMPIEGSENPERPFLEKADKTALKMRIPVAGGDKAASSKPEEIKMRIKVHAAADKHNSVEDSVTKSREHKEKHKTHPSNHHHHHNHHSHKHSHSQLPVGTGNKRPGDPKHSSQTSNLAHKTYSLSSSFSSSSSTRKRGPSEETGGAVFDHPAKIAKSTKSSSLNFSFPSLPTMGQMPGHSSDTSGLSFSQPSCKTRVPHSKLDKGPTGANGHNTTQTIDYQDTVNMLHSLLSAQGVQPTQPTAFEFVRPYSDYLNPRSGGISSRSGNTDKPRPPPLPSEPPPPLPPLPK

## C[C@H](C(=O)Nc1nc2ccccc2[nH]1)N1Cc2ccccc2C1=O [compound 919278]
CDK9–cyclin T; Lanthascreen, average, Extended Data Fig. 8, read-out: CDK9 IC50
  IC50: 120 nM
CDK9–cyclin T; compound 0.038147 nM, fourth titration set (r37), triplicates
  Lanthascreen TR-FRET signal (raw ratio), sheet CDK9: 0.0408 and 0.04808 and 0.04479
CDK9–cyclin T; compound 0.038147 nM, second titration set (r13), duplicates
  Lanthascreen TR-FRET signal (raw ratio), sheet CDK9: 0.01436 and 0.01414
CDK9–cyclin T; compound 0.152588 nM, fourth titration set (r37), triplicates
  Lanthascreen TR-FRET signal (raw ratio), sheet CDK9: 0.0398 and 0.0481 and 0.0499
CDK9–cyclin T; compound 0.152588 nM, second titration set (r13), duplicates
  Lanthascreen TR-FRET signal (raw ratio), sheet CDK9: 0.01385 and 0.01395
CDK9–cyclin T; compound 0.610352 nM, fourth titration set (r37), triplicates
  Lanthascreen TR-FRET signal (raw ratio), sheet CDK9: 0.03905 and 0.04639 and 0.04821
CDK9–cyclin T; compound 0.610352 nM, second titration set (r13), duplicates
  Lanthascreen TR-FRET signal (raw ratio), sheet CDK9: 0.01357 and 0.01395
CDK9–cyclin T; compound 9.76563 nM, fourth titration set (r37), triplicates
  Lanthascreen TR-FRET signal (raw ratio), sheet CDK9: 0.03561 and 0.04225 and 0.04097
CDK9–cyclin T; compound 9.76563 nM, second titration set (r13), duplicates
  Lanthascreen TR-FRET signal (raw ratio), sheet CDK9: 0.01332 and 0.01366
CDK9–cyclin T; compound 39.0625 nM, fourth titration set (r37), triplicates
  Lanthascreen TR-FRET signal (raw ratio), sheet CDK9: 0.02645 and 0.03287 and 0.03192
CDK9–cyclin T; compound 39.0625 nM, second titration set (r13), duplicates
  Lanthascreen TR-FRET signal (raw ratio), sheet CDK9: 0.01225 and 0.01118
CDK9–cyclin T; compound 156.25 nM, fourth titration set (r37), triplicates
  Lanthascreen TR-FRET signal (raw ratio), sheet CDK9: 0.01751 and 0.01989 and 0.01852
CDK9–cyclin T; compound 156.25 nM, second titration set (r13), duplicates
  Lanthascreen TR-FRET signal (raw ratio), sheet CDK9: 0.008604 and 0.00887
CDK9–cyclin T; compound 625 nM, fourth titration set (r37), triplicates
  Lanthascreen TR-FRET signal (raw ratio), sheet CDK9: 0.008779 and 0.01074 and 0.01058
CDK9–cyclin T; compound 625 nM, second titration set (r13), duplicates
  Lanthascreen TR-FRET signal (raw ratio), sheet CDK9: 0.005642 and 0.005316
CDK9–cyclin T; compound 2500 nM, fourth titration set (r37), triplicates
  Lanthascreen TR-FRET signal (raw ratio), sheet CDK9: 0.006189 and 0.006358 and 0.00654
CDK9–cyclin T; compound 2500 nM, second titration set (r13), duplicates
  Lanthascreen TR-FRET signal (raw ratio), sheet CDK9: 0.00388 and 0.003855
CDK9–cyclin T; compound 10000 nM, fourth titration set (r37), triplicates
  Lanthascreen TR-FRET signal (raw ratio), sheet CDK9: 0.00467 and 0.004911 and 0.00523
CDK9–cyclin T; compound 10000 nM, second titration set (r13), duplicates
  Lanthascreen TR-FRET signal (raw ratio), sheet CDK9: 0.003154 and 0.003151
HEK293T cells; 2 nM, + MLN4924
  viability assay signal (normalized): 1.029 and 0.9647
HEK293T cells; 2 nM, without MLN4924
  viability assay signal (normalized): 1.055 and 1.0418
HEK293T cells; 4.69 nM, + MLN4924
  viability assay signal (normalized): 1.105 and 1.018
HEK293T cells; 4.69 nM, without MLN4924
  viability assay signal (normalized): 1.004 and 1.008
HEK293T cells; 11 nM, + MLN4924
  viability assay signal (normalized): 1.0606 and 0.9151
HEK293T cells; 11 nM, without MLN4924
  viability assay signal (normalized): 1.048 and 1.059
HEK293T cells; 25.7 nM, + MLN4924
  viability assay signal (normalized): 1.025 and 1.119
HEK293T cells; 25.7 nM, without MLN4924
  viability assay signal (normalized): 0.893 and 1.0689
HEK293T cells; 141 nM, + MLN4924
  viability assay signal (normalized): 1.103 and 1.1762
HEK293T cells; 141 nM, without MLN4924
  viability assay signal (normalized): 1.0013 and 1.019
HEK293T cells; 331 nM, + MLN4924
  viability assay signal (normalized): 1.1 and 1.102
HEK293T cells; 331 nM, without MLN4924
  viability assay signal (normalized): 0.8356 and 0.898
HEK293T cells; 4270 nM, + MLN4924
  viability assay signal (normalized): 0.7328 and 0.6837
HEK293T cells; 4270 nM, without MLN4924
  viability assay signal (normalized): 0.374 and 0.3286
HEK293T cells; 10000 nM, + MLN4924
  viability assay signal (normalized): 0.484 and 0.4101
HEK293T cells; 10000 nM, without MLN4924
  viability assay signal (normalized): 0.3001 and 0.3205
HEK293T cells
  EC50: 559 nM
  Toxicity rescue: 749%
Cyclin K; [2]
  cyclin K abundance (label-free MS): 525.324 and 551.956
Cyclin K; [3]
  cyclin K abundance (label-free MS): 525.324 and 551.956
Cyclin K
  CCNK peptide count (DMSO-normalised): 0.287 and 0.307
Cyclin K; sheet EDF7
  average CCNK peptide count: 538.64
[1]; 5 nM
  reporter assay signal (normalized): 0.9951 and 0.9832
[1]; 10.7 nM
  reporter assay signal (normalized): 0.9896 and 0.9546
[1]; 22.9 nM, HEK293T
  Normalized GFP/mCheery: 0.8457
[1]; 22.9 nM
  reporter assay signal (normalized): 0.9344 and 0.9583
[1]; 48.9 nM, HEK293T
  Normalized GFP/mCheery: 0.8139
[1]; 48.9 nM
  reporter assay signal (normalized): 0.9381 and 0.9234
[1]; 105 nM, HEK293T
  Normalized GFP/mCheery: 0.8144
[1]; 105 nM
  reporter assay signal (normalized): 0.9087 and 0.8866
[1]; 224 nM
  reporter assay signal (normalized): 0.8755 and 0.8691
[1]; 478 nM, HEK293T
  Normalized GFP/mCheery: 0.7219
[1]; 478 nM
  reporter assay signal (normalized): 0.8011 and 0.8332
[1]; 2190 nM
  reporter assay signal (normalized): 0.7799 and 0.7725
[1]; 4680 nM
  reporter assay signal (normalized): 0.7431 and 0.7578
[1]; 10000 nM, HEK293T
  Normalized GFP/mCheery: 0.6269
[1]; 10000 nM
  reporter assay signal (normalized): 0.7256 and 0.8167
[1]; HEK293T
  cyclin K reporter degradation, result in words: weaker
[1]
  DC50: 176 nM

## CC[C@H](CO)Nc1nc(NCc2nc3cc(Cl)c(Cl)cc3[nH]2)c2ncn(C(C)C)c2n1 [DS17]
CDK9–cyclin T; Supplementary Table 2, read-out: Lanthascreen IC50 [nM] CDK9
  IC50: 3060 nM
CDK9–cyclin T; compound 0.038147 nM, third titration set (r25), duplicates
  Lanthascreen TR-FRET signal (raw ratio), sheet CDK9: 0.02187 and 0.01792
CDK9–cyclin T; compound 0.152588 nM, third titration set (r25), duplicates
  Lanthascreen TR-FRET signal (raw ratio), sheet CDK9: 0.02168 and 0.01994
CDK9–cyclin T; compound 0.610352 nM, third titration set (r25), duplicates
  Lanthascreen TR-FRET signal (raw ratio), sheet CDK9: 0.0196 and 0.01929
CDK9–cyclin T; compound 9.76563 nM, third titration set (r25), duplicates
  Lanthascreen TR-FRET signal (raw ratio), sheet CDK9: 0.02026 and 0.01917
CDK9–cyclin T; compound 39.0625 nM, third titration set (r25), duplicates
  Lanthascreen TR-FRET signal (raw ratio), sheet CDK9: 0.02086 and 0.01978
CDK9–cyclin T; compound 156.25 nM, third titration set (r25), duplicates
  Lanthascreen TR-FRET signal (raw ratio), sheet CDK9: 0.01948 and 0.0176
CDK9–cyclin T; compound 625 nM, third titration set (r25), duplicates
  Lanthascreen TR-FRET signal (raw ratio), sheet CDK9: 0.01695 and 0.01459
CDK9–cyclin T; compound 2500 nM, third titration set (r25), duplicates
  Lanthascreen TR-FRET signal (raw ratio), sheet CDK9: 0.01153 and 0.01174
CDK9–cyclin T; compound 10000 nM, third titration set (r25), duplicates
  Lanthascreen TR-FRET signal (raw ratio), sheet CDK9: 0.006855 and 0.006128
HEK293T cells
  EC50: 93 nM
  Toxicity rescue: 53%
Cyclin K; MDA-MB-231 cells, 1 µM, 5 h
  cyclin K depletion, result in words: more effective at depleting cyclin K than CR8
Cyclin K; [2]
  cyclin K abundance (label-free MS): 47.1483 and 71.6427
Cyclin K; [3]
  cyclin K abundance (label-free MS): 47.1483 and 71.6427
Cyclin K
  CCNK peptide count (DMSO-normalised): 0.02576 and 0.03985
Cyclin K; sheet EDF7
  average CCNK peptide count: 59.3955
[1]
  DC50: 12 nM
